The text below walks through data of patent US20250160327A1, “USE OF CHROMENE OR CHROMANE DERIVATIVES AS HERBICIDAL AGENTS” (ECOLE POLYTECHNIQUE, priority 2022, published 2025).

The test system of the assay is Arabidopsis thaliana ecotype Col-0 seedlings. Put plainly: Phytotoxicity test on Arabidopsis thaliana seedlings in hydroponics, visual analysis of chlorosis. The class given is in vivo. The settings on record: for herbicidal activity: at the concentration tested (125 pM), 48 h; for Activity after 48h: herbicidal activity, concentration of 125 pM, 48 h after application, seedlings at the cotyledon stage, max 1% DMSO. Here is the method: Biological tests have been carried out under axenic conditions on Arabidopsis thaliana ecotype Col-0 seedlings cultured in hydroponics at the cotyledon stage. Sterilised seeds have been sown in microplates (10 seeds per well containing 200 μL of distilled water) and cultured for 10-13 days at 22° C. under a 16 h/8 h (day/night) photoperiod lighting. The treatment has been carried out by replacing the culture medium with an equivalent volume of water containing the molecule to be tested dissolved in DMSO. The maximum DMSO concentration in the treated wells was 1% by volume. A control has therefore been set up with the presence of DMSO at this concentration. The phytotoxicity of the treatment has been evaluated after 48 h of culture, by visual analysis of the chlorosis induced.
By way of comparison, tests have also been carried out under the same conditions as for compounds (Ia1), (Ia2), (Ia3) and (IC1), but with two comparative compounds not forming part of the invention: • a compound (2) including a diphenol ring in place of the chromene ring, and • a compound (3) including a chromene ring but not including an -L-Ar group. All compounds have been tested at a concentration of 125 pM.
Herbicidal activity is indicated by A for Active in the event that the plant is killed, i.e. when both cotyledons have lost all their green coloration, 48 h after application of the product.
The absence of herbicidal activity is indicated by “N” for Not active, in the case where no biological activity is observed

Consider `Oc1cc(O)cc(CCc2ccccc2)c1` [Compound 2], for which the herbicidal activity entry is “no herbicidal activity” and the “Activity after 48h” value is reported as “N”.

As to `Cc1cc(O)c2c(c1)OC(C)(C)C=C2` [Compound 3], the herbicidal activity entry is “no herbicidal activity” and the “Activity after 48h” value is reported as “N”.
